Assay results: patent publication US7709649B2, “Multi-substituted pyridyl sulfoximines and their use as insecticides” (Dow AgroSciences LLC, priority 2006, dated 2010)

Key:
[1] = tested on: green peach aphid (Myzus persicae); assay: Insecticidal test for green peach aphid in foliar spray assay; assay type: in vivo; design: key to GPA 200: % control at 200 ppm against green peach aphid in foliar spray tests / GPA 50: % control at 50 ppm against green peach aphid in foliar spray tests: A: 90-100; B: 80-89; C: 70-79; D: 60-69; E: 50-59; F: Less than 50; G: Inactive; H: Not tested; conditions: foliar spray on cabbage seedlings, 3 days, Corrected % Control (Abbott); for pest or weed control at 50 ppm: Myzus persicae, 72 h, read-out: GPA 50: % control at 50 ppm against green peach aphid in foliar spray tests
Procedure: where • X=No. of live aphids on solvent check plants • Y=No. of live aphids on treated plants Insecticidal Test for Green Peach Aphid (Myzus persicae) in Foliar Spray Assay Cabbage seedlings grown in 3-inch pots, with 2-3 small (3-5 cm) true leaves, were used as test substrate. The seedlings were infested with 20-50 green peach aphids (wingless adult and nymph) 2-3 days prior to chemical application. Four seedlings were used for each treatment. Compounds (2 mg) were dissolved in 2 ml of acetone:methanol (1:1) solvent, forming stock solutions of 1000 ppm. The stock solutions were diluted 5× with 0.025% Tween 20 in H2O to obtain the highest test solution at 200 ppm. A lower test concentration of 50 ppm was prepared by making a 4× dilution from the 200 ppm solution with a diluent consisting 80 parts of 0.025% Tween 20 in H2O and 20 parts of acetone: methanol (1:1). A hand-held Devilbiss sprayer was used for spraying a solution to both sides of cabbage leaves until runoff. Reference plants (solvent check) were sprayed with the diluent only. Treated plants were held in a holding room for three days at approximately 23° C. and 40% RH prior to grading. Evaluation was conducted by counting the number of live aphids per plant under a microscope. Insecticidal activity was measured by using Abbott's correction formula: Corrected % Control=100*(X−Y)/X where • X=No. of live aphids on solvent check plants • Y=No. of live aphids on treated plants The Corrected % Control values from the above assays are given in Table 1.

[2] = tested on: cotton aphid (Aphis gossypii); assay: Insecticidal test for cotton aphid in foliar spray assay; assay type: in vivo; conditions: for pest or weed control at 50 ppm / pest or weed control at 200 ppm: Aphis gossypii, 72 h, foliar spray on squash, 3 days, Corrected % Control (Abbott), Table 1; for pest or weed control at 50 ppm: read-out: CA 50: % control at 50 ppm against cotton aphid in foliar spray tests; for pest or weed control at 200 ppm: read-out: CA 200: % control at 200 ppm against cotton aphid in foliar spray tests; for CA 0.78: % Control at ppm against cotton aphid (foliar spray): 0.78 ppm; for CA 0.78: % Control at ppm against cotton aphid (foliar spray) / CA 3.13: % Control at ppm against cotton aphid (foliar spray) / CA 12.5: % Control at ppm against cotton aphid (foliar spray) / CA 50: % Control at ppm against cotton aphid (foliar spray): rundown assay, Table 2; for CA 3.13: % Control at ppm against cotton aphid (foliar spray): 3.13 ppm; for CA 12.5: % Control at ppm against cotton aphid (foliar spray): 12.5 ppm; for pest or weed control at 50 ppm / CA 50: % Control at ppm against cotton aphid (foliar spray): 50 ppm
Procedure: Insecticidal Test for Cotton Aphid (Aphis gossypii) in Foliar Spray Assay Squash with fully expanded cotyledon leaves were trimmed to one cotyledon per plant and infested with cotton aphid (wingless adult and nymph) 1 day prior to chemical application. Each plant was examined before chemical application to ensure proper infestation (ca. 30-70 aphids per plant). Compounds (2 mg) were dissolved in 2 ml of acetone:methanol (1:1) solvent, forming stock solutions of 1000 ppm. The stock solutions were diluted 5× with 0.025% Tween 20 in H2O to obtain the highest test solution at 200 ppm. Lower test concentrations (50, 12.5, 3.13 and 0.78 ppm) were prepared by making sequential 4× dilutions from the 200 ppm solution with a diluent consisting 80 parts of 0.025% Tween 20 in H2O and 20 parts of acetone:methanol (1:1). A hand-held Devilbiss sprayer was used to apply the spray solutions until runoff to both sides of the squash cotyledon leaves. Four plants (4 replications) were used for each concentration of each compound. Reference plants (solvent check) were sprayed with the diluent only. Treated plants were held in a holding room for 3 days at approximately 23° C. and 40% RH before the number of live aphids on each plant was recorded. Insecticidal activity was measured by Corrected % Control using Abbott's correction formula: Corrected % Control=100*(X−Y)/X where • X=No. of live aphids on solvent check plants • Y=No. of live aphids on treated plants Insecticidal Test for Green Peach Aphid (Myzus persicae) in Foliar Spray Assay

With COc1cc(C(C)S(C)(=O)=NC#N)cnc1Cl (centres unmarked) [Compound 6, [1-(5-methoxy-6-chloropyridin-3-yl)ethyl](methyl)-oxido-λ^4-sulfanylidenecyanamide] the “GPA 50: % control at 50 ppm against green peach aphid in foliar spray tests” value (“GPA 50: % control at 50 ppm” for short) [1] was “G”, the “GPA 200: % control at 200 ppm against green peach aphid in foliar spray tests” value (“GPA 200: % control at 200 ppm” below) [1] was “G” and the pest or weed control at 50 ppm [2] was 60 to 69%. For the same molecule, the pest or weed control at 200 ppm [2] was 90 to 100%.

For CC(c1cnc(Cl)c(Br)c1)S(C)(=O)=NC#N (centres unmarked) [Compound 8, [1-(5-bromo-6-chloropyridin-3-yl)ethyl](methyl)-oxido-λ^4-sulfanylidenecyanamide], the “GPA 50: % control at 50 ppm” value [1] was “G”, the “GPA 200: % control at 200 ppm” value [1] was “B (80-89)” and the “CA 0.78: % Control at ppm against cotton aphid (foliar spray)” value (“CA 0.78: % Control at ppm” for short) [2] was “E (50-59)”. The “CA 3.13: % Control at ppm against cotton aphid (foliar spray)” value (from here on “CA 3.13: % Control at ppm”) [2] was “A (90-100)”, the “CA 12.5: % Control at ppm against cotton aphid (foliar spray)” value (from here on “CA 12.5: % Control at ppm”) [2] was “A (90-100)” and the “CA 50: % Control at ppm against cotton aphid (foliar spray)” value (from here on “CA 50: % Control at ppm”) [2] was “A (90-100)”. It also gave a pest or weed control at 50 ppm [2] of 90 to 100% and a pest or weed control at 200 ppm [2] of 90 to 100%.

In the case of CSc1ncc(C(C)S(C)(=O)=NC#N)cc1F (centres unmarked) [Compound 4, [1-(5-fluoro-6-methylthioyridin-3-yl)ethyl]-(methyl)-oxido-λ^4-sulfanylidenecyanamide], the “GPA 50: % control at 50 ppm” value [1] is reported as “G”, the “GPA 200: % control at 200 ppm” value [1] is reported as “G” and the pest or weed control at 50 ppm [2] is reported as 80 to 89%. The pest or weed control at 200 ppm [2] was 90 to 100%.

With COc1cc(CS(C)(=O)=NC#N)cnc1Cl (centres unmarked) [Compound 5, [(5-methoxy-6-chloropyridin-3-yl)methyl](methyl)-oxido-λ^4-sulfanylidenecyanamide] the “GPA 50: % control at 50 ppm” value [1] was “G”, the “GPA 200: % control at 200 ppm” value [1] was “G” and the pest or weed control at 50 ppm [2] was 70 to 79%. The pest or weed control at 200 ppm [2] was 90 to 100% and the melting point was 123 to 125 °C.

For CS(=O)(Cc1cnc(Cl)c(Br)c1)=NC#N (centres unmarked) [Compound 7, [(5-bromo-6-chloropyridin-3-yl)methyl](methyl)-oxido-λ^4-sulfanylidenecyanamide], the “GPA 50: % control at 50 ppm” value [1] was “G”, the “GPA 200: % control at 200 ppm” value [1] was “G” and the pest or weed control at 50 ppm [2] was 90 to 100%. The pest or weed control at 200 ppm [2] was 90 to 100%.

With CS(=O)(Cc1cnc(Cl)c(Cl)c1)=NC#N (centres unmarked) [Compound 1, [(5,6-dichloropyridin-3-yl)methyl](methyl)-oxido λ^4-sulfanylidenecyanamide] the “GPA 50: % control at 50 ppm” value [1] was “G”, the pest or weed control at 50 ppm [2] was 90 to 100% and the pest or weed control at 200 ppm [2] was 90 to 100%.

In the case of CS(=O)(Cc1cnc(Cl)cc1Cl)=NC#N (centres unmarked) [Compound 9, [(4,6-dichloropyridin-3-yl)methyl](methyl)-oxido λ^4-sulfanylidenecyanamide], the “GPA 50: % control at 50 ppm” value [1] is reported as “G”, the pest or weed control at 50 ppm [2] is reported as 90 to 100% and the pest or weed control at 200 ppm [2] is reported as 90 to 100%.

For CC(c1cnc(Cl)c(F)c1)S(C)(=O)=NC#N (centres unmarked) [Compound 3, [1-(5-fluoro-6-chloropyridin-3-yl)ethyl](methyl)-oxido-λ^4-sulfanylidenecyanamid], the “GPA 200: % control at 200 ppm” value [1] was “A (90-100)”, the pest or weed control at 50 ppm [1] was 80 to 89% and the “CA 0.78: % Control at ppm” value [2] was “A (90-100)”. For the same molecule, the “CA 3.13: % Control at ppm” value [2] was “A (90-100)”, the “CA 12.5: % Control at ppm” value [2] was “A (90-100)” and the “CA 50: % Control at ppm” value [2] was “A (90-100)”. It also gave a pest or weed control at 50 ppm [2] of 90 to 100% and a pest or weed control at 200 ppm [2] of 90 to 100%.

For CS(=O)(Cc1cnc(Cl)c(F)c1)=NC#N (centres unmarked) [Compound 2, [(5-fluroro-6-chloropyridin-3-yl)methyl](methyl)-oxido-λ^4-sulfanylidenecyanamide], the “GPA 200: % control at 200 ppm” value [1] was “B (80-89)”, the pest or weed control at 50 ppm [1] was 50 to 59% and the “CA 0.78: % Control at ppm” value [2] was “A (90-100)”. The “CA 3.13: % Control at ppm” value [2] was “A (90-100)”, the “CA 12.5: % Control at ppm” value [2] was “A (90-100)” and the “CA 50: % Control at ppm” value [2] was “A (90-100)”. For the same molecule, the pest or weed control at 50 ppm [2] was 90 to 100% and the pest or weed control at 200 ppm [2] was 90 to 100%.
